Experiments:
[1] = Metabolic stability in rat liver microsomes assessed as parent compound remaining at 0.1 uM after 60 mins in presence of NADPH by LC-MS/MS analysis; format: ADME, Microsome; settings: read-out: Stability
[2] = Metabolic stability in mouse liver microsomes assessed as parent compound remaining at 0.1 uM after 60 mins in presence of NADPH by LC-MS/MS analysis; format: ADME, Microsome; settings: read-out: Stability
[3] = Metabolic stability in human liver microsomes assessed as parent compound remaining at 0.1 uM after 60 mins in presence of NADPH by LC-MS/MS analysis; format: ADME, Microsome; settings: read-out: Stability
[4] = AUC (0 to infinity) in Balb/c mouse at 2 mg/kg, iv by LC-MS/MS analysis; format: ADME, organism-based; set-up: dose 2 mg/kg, route intravenous, time infinity; settings: in vivo
[5] = Oral bioavailability in Balb/c mouse at 20 mg/kg by LC-MS/MS analysis; format: ADME, organism-based; settings: in vivo
[6] = Half life in Balb/c mouse at 2 mg/kg, iv by LC-MS/MS analysis; format: ADME, organism-based; settings: in vivo
[7] = Tmax in Balb/c mouse at 20 mg/kg, po by LC-MS/MS analysis; format: ADME, organism-based; settings: in vivo
[8] = Cmax in Balb/c mouse at 20 mg/kg, po by LC-MS/MS analysis; format: ADME, organism-based; set-up: dose 20 mg/kg, route oral; settings: in vivo
[9] = Volume of distribution in Balb/c mouse at 2 mg/kg, iv by LC-MS/MS analysis; format: ADME, organism-based; settings: in vivo
[10] = Blood clearance in Balb/c mouse at 2 mg/kg, iv by LC-MS/MS analysis; format: ADME, organism-based; settings: whole blood
[11] = AUC (0 to infinity) in Balb/c mouse at 20 mg/kg, po by LC-MS/MS analysis; format: ADME, organism-based; set-up: dose 20 mg/kg, route oral, time infinity; settings: in vivo

Compound	remaining at 1 h, 0.1 µM [1]	remaining at 1 h, 0.1 µM [2]	remaining at 1 h, 0.1 µM [3]	also measured
Fc1ccc(-c2nc3cnc(Nc4ccc(N5CCN(CC6CC6)CC5)cn4)cc3[nH]2)cc1F	9%	14%	7%	
FC(F)(F)c1ccc(-c2nc3cnc(Nc4ccc(N5CCN(CC6CC6)CC5)cn4)cc3[nH]2)cn1	55%	68%	93%	
Fc1ccc(Nc2cc3[nH]c(Nc4ccc(N5CCNCC5)cn4)nc3cn2)cc1C(F)(F)F	59%	55%	92%	
Fc1ccc(-c2nc3cnc(Nc4ccc(N5CCNCC5)cn4)cc3[nH]2)cc1F	73%	75%	92%	
FC1(F)CC(c2nc3cnc(Nc4ccc(N5CCN(CC6CC6)CC5)cn4)cc3[nH]2)C1	52%	54%	86%	
O=C(c1ccnc(Nc2cc3[nH]c(-c4ccc(F)c(C(F)(F)F)c4)nc3cn2)c1)N1CCN(C2CC2)CC1	53%	93%	77%	
CC(C)(C)N1CCN(C(=O)c2ccnc(Nc3cc4[nH]c(-c5cccc(C(F)(F)F)c5)nc4cn3)c2)CC1	48%	26%	65%	AUC(0-inf) [4]: 0.933 µM·h; bioavailability [5]: 2%; half-life [6]: 19 h; Tmax [7]: 0.5 h; Cmax [8]: 40 nM; Vd [9]: 117 L/kg; clearance [10]: 68 mL/min/kg; AUC(0-inf) [11]: 0.2 µM·h
CC(C)CN1CCN(c2ccc(Nc3cc4[nH]c(C5CCC(F)(F)CC5)nc4cn3)nc2)CC1	64%	61%	59%	
Fc1ccc(-c2nc3cnc(Nc4ccc(C5CCNCC5)cn4)cc3[nH]2)cc1F	97%	87%	98%	
Fc1ccc(Nc2cc3[nH]c(Nc4cc(N5CCNCC5)ccn4)nc3cn2)cc1C(F)(F)F	73%	78%	98%	
Fc1ccc(-c2nc3cnc(Nc4ccc(N5CCN(CC6CC6)CC5)cn4)cc3[nH]2)cc1C(F)(F)F	36%	41%	52%	

Reference: ChEMBL document CHEMBL4308849, “Antimalarial Lead-Optimization Studies on a 2,6-Imidazopyridine Series within a Constrained Chemical Space To Circumvent Atypical Dose-Response Curves against Multidrug Resistant Parasite Strains” (J Med Chem, 2018)
